From patent US20090136977A1, “NOVEL TARGETS FOR ALZHEIMER'S DISEASE” (priority 2007, published 2009)

Legend:
ATase1 mRNA = assay: Real-time quantitative PCR of ATase1 mRNA after ceramide treatment; type: cell-based, human; details: H4 and SH-SY5Y cells; C6-ceramide 10 μM; seen as early as 4 hours, still evident after 4 days
Method: (§1) Chinese Hamster Ovary (CHO) cells were grown in DMEM (Gibco BRL) supplemented with 10% fetal bovine serum (FBS) and penicillin/streptomycin (Mediatech, Inc., Herndon, Va.) as described before (Puglielli et al., 2001, Nat. Cell Biol. 3: 905-912; Puglielli et al., 2003, J. Biol. Chem. 278: 19777-19783). Cells were maintained in a humidified atmosphere with 5% CO2. For ceramide treatment, C6-ceramide (simply called “ceramide”) was administered in the absence of serum and at the final concentration of 10 μM; treatment was started when cells were ˜80% confluent and carried out for the time specified. […]
(§2) RNA quantification was performed by real-time PCR in an ABI PRISM® 7000 Sequence Detection System using SYBR® Green PCR Master Mix (Applied Biosystems). […] Delta-delta Ct values were normalized with those obtained from the amplification of GAPDH and were expressed as fold-change over control. […]
(§3) The 4-hour treatment was performed in the presence of 0.5% fetal bovine serum whereas the 4-days treatment was performed in the presence of 10% fetal bovine serum, as previously described (Puglielli et al., 2003, J. Biol. Chem. 278: 19777-19783; Costantini et al., 2007, Biochem. J. 407: 383-395)). Results are expressed as fold ±S.D. of control (no treatment). […] Results are expressed as fold ±S.D. of age-matched controls.

ATase2 mRNA = assay: Real-time quantitative PCR of ATase2 mRNA after ceramide treatment; type: cell-based, human; details: H4 and SH-SY5Y cells; C6-ceramide 10 μM; seen as early as 4 hours, still evident after 4 days
Method: as §1, §2, §3

BACE1 = details: different cell lines; Costantini et al., 2005; cited from earlier work

In the case of `CCCCCCCCCCCCC/C=C/[C@@H](O)[C@H](CO)NC(=O)CCCCC` [ceramide, C6-ceramide], the “mRNA levels of ATase1 (transcription)” value (ATase1 mRNA) is given as “marked activation of transcription”, the “mRNA levels of ATase2 (transcription)” value (ATase2 mRNA) is given as “marked activation of transcription” and the “acetylation and stabilization of BACE1” value (BACE1) is given as “increased acetylation and stabilization of BACE1”.
